{"source": "patent US20250064993A1", "about": "“NOVEL BISPIDINE-BASED METAL CHELATING LIGANDS DISPLAYING GOOD RELAXIVITY” (UNIVERSITE DE STRASBOURG, priority 2021, published 2025)", "key": {"[1]": {"assay": "Longitudinal relaxivity r1 in water at 60 MHz (WP80 NMR, Bruker)", "type": "physicochemical", "details": "at 25° C., pH = 7.4, and 60 MHz", "experimental": "Equimolar quantities of ligand and MnCl2 were dissolved in milli-Q water, the pH was adjusted to 7.4 either with a buffered solution or by adding KOH or HCl to the solution and the samples were heated at 60° C. for 30 min. The absence of free Mn^2+ was checked by the Xylenol orange test.\nThe relaxivity at 60 MHz is measured with a device commercialized under the brand name WP80 NMR by the firm Brucker according to the following protocol. A millimolar aqueous solution of complex was prepared with Milli-Q water (p<18MΩ). The concentration of Mn^2+-containing samples was checked by ICP-OES and/or NMR by using the bulk magnetic susceptibility. The absence of free Mn^2+ was checked by the Xylenol orange test. For the relaxivity measurement, the temperature was monitored by a VTC91 temperature control unit and maintained by a gas flow. The temperature was determined by previous calibration with a Pt resistance temperature probe."}, "[2]": {"assay": "Kinetic inertness: half-life by transmetallation of the Mn2+ complex with excess Zn2+, followed by water proton relaxation rates", "type": "physicochemical", "details": "25 eq Zn^2+, pH = 6, 37° C.; read-out: Half-life in excess of Zn^2+ (t1/2) (converted)", "experimental": "The excess of the exchanging metal ion guarantees the pseudo-first order conditions. For the duration of the experiments (up to 3 months), the samples were stored in a thermostat at 37° C. between the relaxivity measurements. The pH was controlled for each sample at the end of the kinetic measurements to confirm that it remained stable during the experiment. The reactions were monitored by measuring the water proton relaxation rates at 60 MHz on a relaxometer commercialized under the brand name Minispec by the firm a Bruker. The analysis of the experimental data was performed using Visualiseur/Optimiseur running on a MATLAB 8.3.0 (R2014a) platform according to equations (1) and (2): […]\nwere [MnL]t stands for the total concentration of MnL complex, Kobs stands for the pseudo-first order constant and t1/2 is the half-life of the MnL complex in the given conditions."}, "[3]": {"details": "pH of 7.4, 60 MHz, 25° C.; cited from earlier work"}}, "data": [{"compound": "CN1[C@@H](c2ccccn2)C2(C(=O)O)CN([C@@H](CCCCNC(=O)CCOCCOCCO)C(=O)O)CC(C(=O)O)([C@H]2O)[C@H]1c1ccccn1", "note": "[(I-a)]", "values": [{"measurement": "Longitudinal relaxivity in water (r1)", "setting": "[1]; listed as (I-A)", "result": 4.89, "unit": "mM⁻¹ s⁻¹"}]}, {"compound": "CN1[C@@H](c2ccccn2)C2(C(=O)O)CN([C@@H](CCCCNC(=O)CCOCCOCCO)C(=O)O)CC(C(=O)O)([C@H]2O)[C@H]1c1ccccn1", "note": "[(I-d)]", "values": [{"measurement": "Longitudinal relaxivity in water (r1)", "setting": "[1]; listed as (I-D)", "result": 4.03, "unit": "mM⁻¹ s⁻¹"}, {"measurement": "half-life at 1 mM", "setting": "[2]", "result": 160, "unit": "days"}]}, {"compound": "CNC[C@H](O)[C@@H](O)[C@H](O)[C@H](O)CO.O=C([O-])CN1CCN(CC(=O)[O-])CCN(CC(=O)O)CCN(CC(=O)[O-])CC1.[Gd+3]", "note": "[Dotarem, gadoterate meglumine]", "values": [{"measurement": "relaxivity r1", "setting": "[3]", "result": 3.7, "unit": "mM⁻¹ s⁻¹"}]}]}
